The record followed here is ChEMBL document CHEMBL1143900, “Tetrazole-biarylpyrazole derivatives as cannabinoid CB1 receptor antagonists” (Bioorg Med Chem Lett, 2008).

Bounds are passed on as bounds.

For orientation: IC50 means the concentration needed to halve the response being measured. A low value points to inhibition by little substance.

Sequence of Cannabinoid receptor 2 (P34972 whole entry): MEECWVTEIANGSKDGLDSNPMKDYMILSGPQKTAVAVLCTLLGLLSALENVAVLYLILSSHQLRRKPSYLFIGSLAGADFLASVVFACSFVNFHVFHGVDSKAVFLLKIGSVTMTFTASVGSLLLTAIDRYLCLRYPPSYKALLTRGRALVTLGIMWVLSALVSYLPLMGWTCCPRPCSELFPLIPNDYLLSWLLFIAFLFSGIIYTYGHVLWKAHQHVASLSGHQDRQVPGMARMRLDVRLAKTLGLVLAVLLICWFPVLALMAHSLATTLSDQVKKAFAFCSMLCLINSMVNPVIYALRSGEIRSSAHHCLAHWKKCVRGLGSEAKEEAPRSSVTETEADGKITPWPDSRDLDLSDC
Sequence of Cannabinoid receptor 1 (P20272 whole entry): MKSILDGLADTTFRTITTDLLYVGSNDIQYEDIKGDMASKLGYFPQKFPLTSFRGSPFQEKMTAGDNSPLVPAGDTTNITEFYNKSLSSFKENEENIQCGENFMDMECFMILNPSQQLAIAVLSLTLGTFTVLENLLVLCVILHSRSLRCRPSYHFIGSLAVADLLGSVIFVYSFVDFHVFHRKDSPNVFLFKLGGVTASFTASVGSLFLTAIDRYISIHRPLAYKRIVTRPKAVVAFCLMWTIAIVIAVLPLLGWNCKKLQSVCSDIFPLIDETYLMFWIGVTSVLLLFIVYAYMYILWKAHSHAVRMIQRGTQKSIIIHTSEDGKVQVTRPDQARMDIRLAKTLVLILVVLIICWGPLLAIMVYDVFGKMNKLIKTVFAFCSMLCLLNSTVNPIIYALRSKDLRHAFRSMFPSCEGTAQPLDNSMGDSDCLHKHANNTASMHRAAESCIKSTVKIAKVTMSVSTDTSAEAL

The first experiment has as its target Cannabinoid receptor 1 (Rattus norvegicus, UniProt P20272). Description: Inhibition of cannabinoid CB1 receptor in Sprague-Dawley rat brain.
`CCCCCCCCn1nnc(-c2nn(-c3ccc(Cl)cc3Cl)c(-c3ccc(Cl)cc3)c2C)n1` gave an IC50 of 50.6 nM. `Cc1c(-c2nnnn2C(C)(C)C)nn(-c2ccc(Cl)cc2Cl)c1-c1ccc(Cl)cc1` had a half-maximal inhibitory concentration (IC50) of 361 nM. Compound `Cc1c(-c2nnnn2C)nn(-c2ccc(Cl)cc2Cl)c1-c1ccc(Cl)cc1` registered an IC50 of 1060 nM. Turning to `Cc1c(-c2nnnn2-c2ccccc2)nn(-c2ccc(Cl)cc2Cl)c1-c1ccc(Cl)cc1`, the IC50 was 33.8 nM.

`Cc1c(-c2nnnn2C2CCCCCC2)nn(-c2ccc(Cl)cc2Cl)c1-c1ccc(Cl)cc1` showed a half-maximal inhibitory concentration (IC50) of 26.7 nM. `Cc1c(-c2nnnn2Cc2ccccc2)nn(-c2ccc(Cl)cc2Cl)c1-c1ccc(Cl)cc1` gave an IC50 of 94.3 nM.

Turning to `CCCCCCCCn1nnnc1-c1nn(-c2ccc(Cl)cc2Cl)c(-c2ccc(Cl)cc2)c1C`, the IC50 stood at 47.3 nM.

On to `CCn1nnc(-c2nn(-c3ccc(Cl)cc3Cl)c(-c3ccc(Cl)cc3)c2C)n1`, for which the concentration for half-maximal inhibition (IC50) is more than 1000 nM. With `Cc1c(-c2nnn(C)n2)nn(-c2ccc(Cl)cc2Cl)c1-c1ccc(Cl)cc1`, the IC50 is more than 1000 nM. In turn, `CCCCn1nnnc1-c1nn(-c2ccc(Cl)cc2Cl)c(-c2ccc(Cl)cc2)c1C` came in with an IC50 of 87.8 nM. Still for that read-out and setting: to `CCCCn1nnc(-c2nn(-c3ccc(Cl)cc3Cl)c(-c3ccc(Cl)cc3)c2C)n1` belongs 87.7 nM.

Another experiment addresses Cannabinoid receptor 2 (Homo sapiens, UniProt P34972). Description: Displacement of [3H]WIN-55212-2 from human cannabinoid CB2 receptor expressed in CHO cells. In kind it is cell-based. A general note: Displacement assays read how much labelled ligand stays bound in the presence of the test substance.
Take `Cc1c(-c2nnnn2C2CCCC2)nn(-c2ccc(Cl)cc2Cl)c1-c1ccc(Cl)cc1`: the half-maximal inhibitory concentration (IC50) is more than 10000 nM. With `CCc1c(-c2nnnn2C2CCCC2)nn(-c2ccc(Cl)cc2Cl)c1-c1ccc(Cl)cc1`, the IC50 is 840 nM. Regarding `CCc1c(-c2nnnn2C2CCCC2)nn(-c2ccc(Cl)cc2Cl)c1-c1ccc(Br)cc1`, the concentration for half-maximal inhibition (IC50) was 1930 nM. `Cc1c(-c2nnnn2C2CCCCCC2)nn(-c2ccc(Cl)cc2Cl)c1-c1ccc(Cl)cc1` displayed an IC50 of 818 nM. Compound `Cc1c(-c2nnnn2C2CCCC2)nn(-c2ccc(Cl)cc2Cl)c1-c1ccc(Br)cc1` gave an IC50 of 4240 nM.

`Cc1c(-c2nnnn2C2CCCCCC2)nn(-c2ccc(Cl)cc2Cl)c1-c1ccc(Br)cc1`: the IC50 is more than 10000 nM.

System in the next experiment: not listed separately
Description: Selectivity ratio of IC50 for Sprague-Dawley rat CB1 receptor over IC50 for human CB2 receptor.
On to `Cc1c(-c2nnnn2C2CCCC2)nn(-c2ccc(Cl)cc2Cl)c1-c1ccc(Br)cc1`, for which the Ratio IC50 is 366.
